What is called IC50 is the point on the concentration scale where inhibition reaches its midpoint. Lower therefore signals greater potency. The term EC50 denotes the concentration giving half of the maximal effect. Low readings indicate a more potent agent, high ones a less potent agent.

One experiment has as its target T1, SIK2 (Homo sapiens, UniProt Q9H0K1).
T1 construct: purchased ThermoFisher Scientific PV4792
The experiment can be described thus: ADP-Glo kinase assay, SIK2. The experiment is classed as biochemical. The note with it: ADP-Glo SIK kinase assay. In outline:
(§1)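 Wells with 1% DMSO or 10 μM staurosporine (final) define the control window. The kinase reaction with substrate and ATP runs 120 min at RT, followed by ADP-Glo detection: ATP depletion (40 min) and ADP-derived luminescence (30 min).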
Background: ADP-Glo turns the ADP formed in a reaction into a luminescent signal.

A further experiment has as its target T2, SIK3 (Homo sapiens, UniProt Q9Y2K2).
T2 construct: purchased SignalChem S12-11G-100
The experiment in a line: ADP-Glo kinase assay, SIK3. The experiment is classed as biochemical. The note with it: ADP-Glo SIK kinase assay. The gist of the method: as §1

In the next experiment the target is T3, SIK1 (Homo sapiens, UniProt P57059).
T3 construct: purchased Carna Biosciences 02-131
The experiment in a line: ADP-Glo kinase assay, SIK1. The experiment is classed as biochemical. Particulars: ADP-Glo SIK kinase assay. In outline:
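ADP-Glo, RT throughout. Enz/substrate + ATP, 120 min; ADP-Glo reagent 40 min (ATP depletion); detection reagent 30 min; luminescence read. Neg ctrl 1% DMSO, pos ctrl 10 μM staurosporine, final concs.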

In experiment [1] the test system is LPS-induced TNFα in monocytes. The experiment can be described thus: Monocytes assay: LPS-triggered TNFα (ELISA). Format: cell-based, human. The note with it: Homo sapiens, Monocyte, 4 h, LPS 200 ng/mL, supernatant after 4 h. The procedure:
(§2) SIK inhibition inhibits TNFα and increases IL-10 release in LPS triggered monocyte-derived macrophages (MdM) and dendritic cells (MdDCs) (Clark et al. 2012; Sundberg et al. 2014; Ozanne et al. 2015). This assay evaluates illustrative compounds of the invention for their inhibition of LPS-induced TNFα and LPS triggered IL-10 secretion in monocytes.
(§3) PBMCs are isolated from human blood samples (buffycoats). The buffy coat is aseptically transferred into a 50 mL Falcon tube, and diluted 1/2 in PBS. Falcon tubes are filled with 20 mL Lymphoprep™, on top of which 25 mL of the buffy coat is carefully added, tubes are centrifuged for 35 min at 400 g in temperature controlled centrifuge, without brake, at 25° C. PBMCs are aspirated from the white interface layer between sample and Lymphoprep™. PBMCs are washed five times in PBS. Cells are resuspended in RPMI 1640 complete medium supplemented with 10% FBS, 1% P/S, and cell density is determined using a hematologic analyzer (Sysmex XS-500i).
(§4) PBMCs are centrifuged at 300×g for 10 min and resuspended at a density of 1.0*10^7 cells/80 μL Miltenyi buffer (PBS, pH 7.4, 1% FBS, 2 mM EDTA).
(§5) Starting from this point of the protocol all steps are performed on ice. 20 μL of CD14+ micro-beads are added per 1.0*10^7 cells, the tube is mixed and incubated for 15 min in the fridge at 4° C. Cell suspension volume is adjusted to total volume of 100 mL using Miltenyi buffer, mixed gently and subsequently centrifuged for 10 min at 300×g. Supernantant is discarded and cell pellet is resuspended in 12 mL of Miltenyi buffer.
(§6) Four LS columns are placed in the MACS Separator (magnet) from Miltenyi Biotec, and are prewet by rinsing with 3 mL of MACS buffer per column. Three mL of cell suspension is added onto the column (max 1*10^8 of labelled cells/column), and columns are subsequently washed 3 times with 3 mL of Miltenyi buffer.
(§7) The columns are removed from the magnets, and 5 mL of Miltenyi buffer are added to the column to flush out the CD14+ fraction by pushing the plunger into the column. The flushed fractions are collected in a fresh 50 mL Falcon and volume is adjusted to 30 mL using Miltenyi buffer, cells are centrifuged for 10 min at 300×g. The obtained cell pellet is resuspended in 10 mL RPMI w/o FBS, and cell density is determined using a hematologic analyser (Sysmex XS-500i). 100 000 cells are seeded in 80 μL per well of a 96-well plate in RPMI 1640 medium supplemented with 10% FBS, 1% P/S.
(§8) A compound dilution plate is made in 100% DMSO by 3-fold dilution of 10 mM stock solution. An intermediate dilution plate (10× final concentration) is made by diluting the compound dilution plate 50-fold in RPMI medium.
(§9) 10 μL of the 10× final concentration compound is added to the cells and incubated for 1 h at 37° C. before addition of trigger. No trigger conditions/trigger conditions are spiked with equal final DMSO concentrations of 0.2% DMSO. 10 μL of 10×LPS (final conc. 200 ng/mL) solution are added to all wells except for the ‘no trigger wells’ where 10 μL medium is added. Supernatant is collected after 4 h of LPS triggering.
A Lumitrac 600 Greiner 384-well plate is coated with 40 μL of capture antibody (BD Pharmingen, Cat #551220) reaching a final concentration of 1 μg/mL in 1×PBS and stored overnight at 4° C.
The plate is then washed once with PBST (PBS+0.05% Tween20) and once with PBS followed by the addition of 100 μL of blocking buffer (1% Bovine Serum Albumin (BSA)−5% Sucrose) and plates are sealed and incubated for at least 4 h at RT. After washing the plate once with PBST and once with PBS, […]. Plates are washed twice with PBST, and once with PBS, after which 35 μL of the detection antibody is added (final concentration 0.25 μg/mL diluted in dilution buffer) and plates are incubated for at least 2 h at RT. […]

Experiment [2] deals with LPS triggered IL-10 secretion in monocytes. The experiment in a line: Monocytes assay: LPS-triggered IL-10 (ELISA). Particulars: LPS 200 ng/mL, supernatant after 4 h, maximal fold change vs LPS only. The experiment is classed as cell-based, human. The procedure:
as §2, §3, §4, §5, §6, §7, §8, §9
A Lumitrac 600 Greiner 384-well plate is coated with 40 μL of capture antibody (final concentration of 1 μg/mL in 1×PBS) and stored overnight at 4° C. The next day the plate is washed three times with PBST (PBS+0.05% Tween20) and once with PBS followed by the addition of 100 μL of blocking buffer (1% BSA−5% Sucrose) and plates are sealed and incubated for at least 4 h at RT. After washing the plate once with PBST and once with PBS, 40 μL of standard or sample are added (IL-10 standard curve is prepared using a 1/2 serial dilution starting from […]; dilutions are made in dilution buffer (PBS+1% BSA)). Plates are washed twice with PBST, and once with PBS, after which 35 μL of the detection antibody is added (final concentration 0.143 μg/mL diluted in dilution buffer) and plates are incubated for at least 2 h at RT. […]
Background: An ELISA detects its analyte on a solid surface through an enzyme-linked reagent.

T2 sequence (Q9Y2K2 whole entry): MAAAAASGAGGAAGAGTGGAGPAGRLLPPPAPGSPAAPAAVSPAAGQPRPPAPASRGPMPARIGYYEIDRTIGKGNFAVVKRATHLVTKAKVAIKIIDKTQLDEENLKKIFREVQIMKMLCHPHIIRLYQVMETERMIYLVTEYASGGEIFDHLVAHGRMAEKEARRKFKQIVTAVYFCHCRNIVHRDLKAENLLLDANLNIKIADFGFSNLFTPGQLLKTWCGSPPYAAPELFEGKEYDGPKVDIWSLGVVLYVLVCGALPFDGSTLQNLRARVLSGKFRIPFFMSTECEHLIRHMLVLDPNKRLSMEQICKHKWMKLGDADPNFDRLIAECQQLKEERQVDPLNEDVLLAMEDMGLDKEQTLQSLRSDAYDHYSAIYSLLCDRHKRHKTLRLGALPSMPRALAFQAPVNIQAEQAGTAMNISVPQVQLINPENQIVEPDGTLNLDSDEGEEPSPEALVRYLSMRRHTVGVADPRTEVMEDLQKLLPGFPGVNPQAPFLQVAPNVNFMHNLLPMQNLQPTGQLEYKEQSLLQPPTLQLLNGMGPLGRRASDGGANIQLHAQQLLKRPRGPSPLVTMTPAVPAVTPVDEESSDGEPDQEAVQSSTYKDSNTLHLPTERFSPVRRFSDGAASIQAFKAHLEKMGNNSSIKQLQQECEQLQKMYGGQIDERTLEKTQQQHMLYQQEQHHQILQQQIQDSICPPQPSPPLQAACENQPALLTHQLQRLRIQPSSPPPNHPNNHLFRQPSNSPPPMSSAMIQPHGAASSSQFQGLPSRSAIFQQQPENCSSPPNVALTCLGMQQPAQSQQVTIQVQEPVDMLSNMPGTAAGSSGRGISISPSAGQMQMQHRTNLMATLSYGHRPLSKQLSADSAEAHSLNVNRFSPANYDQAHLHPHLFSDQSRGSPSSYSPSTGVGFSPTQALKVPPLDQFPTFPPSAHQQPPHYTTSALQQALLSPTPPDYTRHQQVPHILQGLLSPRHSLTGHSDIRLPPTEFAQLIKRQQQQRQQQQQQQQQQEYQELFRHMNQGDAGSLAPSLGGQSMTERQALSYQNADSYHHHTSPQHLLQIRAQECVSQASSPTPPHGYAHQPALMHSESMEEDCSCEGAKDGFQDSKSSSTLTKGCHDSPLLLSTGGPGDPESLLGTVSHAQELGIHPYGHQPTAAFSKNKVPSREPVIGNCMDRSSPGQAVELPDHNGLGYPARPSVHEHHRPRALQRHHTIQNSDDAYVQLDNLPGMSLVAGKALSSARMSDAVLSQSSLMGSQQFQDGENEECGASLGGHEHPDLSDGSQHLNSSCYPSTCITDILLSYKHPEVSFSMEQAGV
T1 sequence (Q9H0K1 whole entry): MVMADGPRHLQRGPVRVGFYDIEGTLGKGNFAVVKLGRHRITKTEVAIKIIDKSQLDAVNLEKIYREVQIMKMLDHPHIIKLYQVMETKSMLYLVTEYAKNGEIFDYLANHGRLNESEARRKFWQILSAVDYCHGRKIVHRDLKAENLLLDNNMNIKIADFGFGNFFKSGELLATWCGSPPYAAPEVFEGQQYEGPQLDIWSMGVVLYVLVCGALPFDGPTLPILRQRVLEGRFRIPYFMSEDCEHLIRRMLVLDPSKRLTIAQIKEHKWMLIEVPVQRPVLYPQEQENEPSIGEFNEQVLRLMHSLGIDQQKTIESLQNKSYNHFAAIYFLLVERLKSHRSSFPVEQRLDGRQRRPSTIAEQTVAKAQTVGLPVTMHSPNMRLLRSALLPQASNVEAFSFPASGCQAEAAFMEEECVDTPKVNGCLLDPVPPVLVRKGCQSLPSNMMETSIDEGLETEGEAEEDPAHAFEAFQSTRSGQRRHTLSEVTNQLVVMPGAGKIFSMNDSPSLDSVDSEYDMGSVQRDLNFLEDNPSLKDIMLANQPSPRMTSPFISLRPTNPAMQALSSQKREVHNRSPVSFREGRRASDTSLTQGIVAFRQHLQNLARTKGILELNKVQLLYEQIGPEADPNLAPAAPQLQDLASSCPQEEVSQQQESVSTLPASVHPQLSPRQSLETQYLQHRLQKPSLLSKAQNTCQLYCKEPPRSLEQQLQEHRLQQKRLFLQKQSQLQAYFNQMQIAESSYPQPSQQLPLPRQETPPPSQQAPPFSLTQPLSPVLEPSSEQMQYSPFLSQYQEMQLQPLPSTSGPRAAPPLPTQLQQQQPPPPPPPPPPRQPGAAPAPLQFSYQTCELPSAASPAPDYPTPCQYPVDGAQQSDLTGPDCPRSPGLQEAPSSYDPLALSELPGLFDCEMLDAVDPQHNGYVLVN
T3 sequence (P57059 whole entry): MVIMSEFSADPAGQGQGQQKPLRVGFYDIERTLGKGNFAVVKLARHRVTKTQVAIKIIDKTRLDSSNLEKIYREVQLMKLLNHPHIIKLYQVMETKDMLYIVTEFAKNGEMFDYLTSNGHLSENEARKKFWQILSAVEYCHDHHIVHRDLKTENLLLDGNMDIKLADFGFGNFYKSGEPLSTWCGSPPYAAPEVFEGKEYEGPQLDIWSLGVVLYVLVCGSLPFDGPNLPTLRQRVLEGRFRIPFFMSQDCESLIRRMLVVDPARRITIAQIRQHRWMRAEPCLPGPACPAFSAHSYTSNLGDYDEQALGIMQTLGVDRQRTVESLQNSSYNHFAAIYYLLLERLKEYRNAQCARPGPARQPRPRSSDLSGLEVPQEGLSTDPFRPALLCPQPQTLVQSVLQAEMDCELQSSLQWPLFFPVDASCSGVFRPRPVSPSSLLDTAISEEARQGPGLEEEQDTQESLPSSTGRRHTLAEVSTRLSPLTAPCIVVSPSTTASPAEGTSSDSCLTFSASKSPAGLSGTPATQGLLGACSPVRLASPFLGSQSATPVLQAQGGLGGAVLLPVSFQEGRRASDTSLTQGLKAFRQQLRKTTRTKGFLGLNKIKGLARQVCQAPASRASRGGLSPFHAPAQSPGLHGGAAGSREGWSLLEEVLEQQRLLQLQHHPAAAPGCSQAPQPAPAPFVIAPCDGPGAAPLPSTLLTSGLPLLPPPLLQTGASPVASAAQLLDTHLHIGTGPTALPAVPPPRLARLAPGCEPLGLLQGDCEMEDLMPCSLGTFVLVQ

For `COc1cc(-c2cnc3cc(OCCCN4CCC(F)(C(N)=O)CC4)ccn23)cc(OC(F)F)c1C(=O)NC1CC1` [Cpd 361, l-[3-[3-[4-(cyclopropylcarbamoyl)-3-(difluoromethoxy)-5-methoxy-phenyl]imidazo[1,2-a]pyridin-7-yl]oxypropyl]-4-fluoro-piperidine-4-carboxamide], the IC50 at SIK2 is 0.01 to 10 nM; at SIK3, 0.01 to 10 nM; on SIK1 it was 10 to 100 nM. This compound also registered an EC50 in experiment [1] of 0.1 to 100 nM. In addition, the “IL-10 FCmax median” value in experiment [2] was “++ (>1.5-4.5)”.

With `COc1cc(-c2cnc3cc(OCC(O)CN4CCS(=O)(=O)CC4)ccn23)cc(OC(F)F)c1C(=O)NC1CC1` (stereo not shown) [compound 374, N-cyclopropyl-2-(difluoromethoxy)-4-[7-[3-(1,1-dioxo-1,4-thiazinan-4-yl)-2-hydroxy-propoxy]imidazo[1,2-a]pyridin-3-yl]-6-methoxy-benzamide], the IC50 lay in the range of 0.01 to 10 nM against SIK2, 0.01 to 10 nM at SIK3 and 10 to 100 nM against SIK1. In addition, in experiment [1], the EC50 lay within 100 to 1000 nM. For the same compound, the “IL-10 FCmax median” value in experiment [2] was “+++ (>4.5)”.

On to `COc1cc(-c2cnc3cc(OCCCN4CCCCC4)ccn23)cc(OC(F)F)c1C(=O)N1CC(O)(C(F)(F)F)C1` [compound 354, [2-(difluoromethoxy)-6-methoxy-4-[7-[3-(1-piperidyl)propoxy]imidazo[1,2-a]pyridin-3-yl]phenyl]-[3-hydroxy-3-(trifluoromethyl)azetidin-1-yl]methanone], for which the figures for the IC50 against SIK2, against SIK3 and on SIK1 were 0.01 to 10 nM, 0.01 to 10 nM and 10 to 100 nM, respectively. In experiment [1], this compound had an EC50 of 100 to 1000 nM. Further, the “IL-10 FCmax median” value in experiment [2] was “+++ (>4.5)”.

For the compound `COc1cc(-c2cnc3cc(OCCCN4CCN(C(C)C)CC4)ccn23)cc(OC(F)F)c1C(=O)NC1CC1` [Cpd 279, N-cyclopropyl-2-(difluoromethoxy)-4-[7-[3-(4-isopropylpiperazin-1-yl)propoxy]imidazo[1,2-a]pyridin-3-yl]-6-methoxy-benzamide], the IC50 against SIK2, at SIK3 and against SIK1 was 0.01 to 10 nM each time. In experiment [1], this compound had an EC50 of 0.1 to 100 nM. In addition, the “IL-10 FCmax median” value in experiment [2] is recorded as “+++ (>4.5)”.

Regarding `COc1cc(-c2cnc3cc(OC[C@H]4CCN(C(C)C)C4)ccn23)cc(OC(F)F)c1C(=O)NC1CC1` [compound 316, N-cyclopropyl-2-(difluoromethoxy)-4-[7-[[(3S)-1-isopropylpyrrolidin-3-yl]methoxy]imidazo[1,2-a]pyridin-3-yl]-6-methoxy-benzamide], the IC50 against SIK2 was in the range of 0.01 to 10 nM; against SIK3 it was 0.01 to 10 nM; at SIK1, 10 to 100 nM. The compound further returned an EC50 in experiment [1] of 0.1 to 100 nM. For the same compound, the “IL-10 FCmax median” value in experiment [2] is on record as “+++ (>4.5)”.

As to `COc1cc(-c2cnc3cc(OCCOCCN4CCN(C(C)C)CC4)ccn23)cc(OC(F)F)c1C(=O)NC1CC1` [compound 298, N-cyclopropyl-2-(difluoromethoxy)-4-[7-[2-[2-(4-isopropylpiperazin-1-yl)ethoxy]ethoxy]imidazo [1,2-a]pyridin-3-yl]-6-methoxy-benzamide], the IC50 against SIK2 fell in the range of 0.01 to 10 nM; against SIK3, 0.01 to 10 nM; at SIK1, 10 to 100 nM. The compound further displayed an EC50 in experiment [1] of 100 to 1000 nM. In addition, the “IL-10 FCmax median” value in experiment [2] is on record as “+++ (>4.5)”.

As to `COc1cc(-c2cnc3cc(OCC(O)CN4CC(O)(C(F)(F)F)C4)ccn23)cc(OC(F)F)c1C(=O)NC1CC1` (stereo not shown) [compound 375, N-cyclopropyl-2-(difluoromethoxy)-4-[7-[2-hydroxy-3-[3-hydroxy-3-(trifluoromethyl)azetidin-1-yl]propoxy]imidazo[1,2-a]pyridin-3-yl]-6-methoxy-benzamide], the IC50 against SIK2 lay in the range of 0.01 to 10 nM; on SIK3 it was 0.01 to 10 nM; at SIK1, 10 to 100 nM. The same compound gave an EC50 in experiment [1] of 100 to 1000 nM. Moreover, the “IL-10 FCmax median” value in experiment [2] is given as “+++ (>4.5)”.

On to `COc1cc(-c2cnc3cc(OCCCN4CC5CC4CO5)ccn23)cc(OC(F)F)c1C(=O)NC1CC1` (stereo not shown) [compound 284, N-cyclopropyl-2-(difluoromethoxy)-6-methoxy-4-[7-[3-(2-oxa-5-azabicyclo[2.2.1]heptan-5-yl)propoxy]imidazo[1,2-a]pyridin-3-yl]benzamide], for which the IC50 against SIK2, on SIK3 and against SIK1 was 0.01 to 10 nM throughout. Besides, the EC50 in experiment [1] lay within 0.1 to 100 nM. For the same compound, the “IL-10 FCmax median” value in experiment [2] is recorded as “++ (>1.5-4.5)”.

`COc1cc(-c2cnc3cc(OCCCN4CCCCC4)ccn23)cc(OC(F)F)c1C(=O)NCC#N` [compound 356, N-(cyanomethyl)-2-(difluoromethoxy)-6-methoxy-4-[7-[3-(1-piperidyl)propoxy]imidazo[1,2-a]pyridin-3-yl]benzamide]: the IC50 against SIK2 lay in the range of 0.01 to 10 nM; against SIK3, 0.01 to 10 nM; on SIK1, 10 to 100 nM. Also, the concentration for a half-maximal effect (EC50) in experiment [1] was 100 to 1000 nM. For the same compound, in experiment [2], the “IL-10 FCmax median” value is reported as “+++ (>4.5)”.

For `COc1cc(-c2cnc3cc(OCC(O)CN4CCC(O)CC4)ccn23)cc(OC(F)F)c1C(=O)NC1CC1` (stereo not shown) [compound 379, N-cyclopropyl-2-(difluoromethoxy)-4-[7-[2-hydroxy-3-(4-hydroxy-1-piperidyl)propoxy]imidazo [1,2-a]pyridin-3-yl]-6-methoxy-benzamide], the IC50 fell in the range of 0.01 to 10 nM at SIK2, 0.01 to 10 nM against SIK3 and 10 to 100 nM at SIK1. Moreover, in experiment [1], the EC50 fell in the range of 100 to 1000 nM. The “IL-10 FCmax median” value in experiment [2] was “++ (>1.5-4.5)”.

`COc1cc(-c2cnc3cc(OCC(O)CN4CC(C(=O)OC(C)(C)C)C4)ccn23)cc(OC(F)F)c1C(=O)NC1CC1` (stereo not shown) [compound 394, tert-butyl 1-[3-[3-[4-(cyclopropylcarbamoyl)-3-(difluoromethoxy)-5-methoxy-phenyl]imidazo[1,2-a]pyridin-7-yl]oxy-2-hydroxy-propyl]azetidine-3-carboxylate]: the figures for the IC50 against SIK2, against SIK3 and against SIK1 were 0.01 to 10 nM, 0.01 to 10 nM and 10 to 100 nM, respectively. For the same compound, the EC50 in experiment [1] fell in the range of 0.1 to 100 nM. In addition, in experiment [2], the “IL-10 FCmax median” value is reported as “++ (>1.5-4.5)”.

Values taken from patent publication US12264156B2, “Compounds and pharmaceutical compositions thereof for the treatment of diseases” (GALAPAGOS NV, priority 2018, dated 2025).
